{
  "source": "patent US20050113413A1",
  "about": "“Naphthalene-1,5-disulfonic acid salts of a substituted 4-amino-1-(pyridylmethyl)piperidine compound” (priority 2003, published 2005)",
  "key": {"[1]": {"molecular_target": "T1, hM2 muscarinic receptor subtype (Homo sapiens, UniProt P08172)", "T1 construct": "expressed in transfected cells; membranes prepared", "T1 sequence (P08172 1-466)": "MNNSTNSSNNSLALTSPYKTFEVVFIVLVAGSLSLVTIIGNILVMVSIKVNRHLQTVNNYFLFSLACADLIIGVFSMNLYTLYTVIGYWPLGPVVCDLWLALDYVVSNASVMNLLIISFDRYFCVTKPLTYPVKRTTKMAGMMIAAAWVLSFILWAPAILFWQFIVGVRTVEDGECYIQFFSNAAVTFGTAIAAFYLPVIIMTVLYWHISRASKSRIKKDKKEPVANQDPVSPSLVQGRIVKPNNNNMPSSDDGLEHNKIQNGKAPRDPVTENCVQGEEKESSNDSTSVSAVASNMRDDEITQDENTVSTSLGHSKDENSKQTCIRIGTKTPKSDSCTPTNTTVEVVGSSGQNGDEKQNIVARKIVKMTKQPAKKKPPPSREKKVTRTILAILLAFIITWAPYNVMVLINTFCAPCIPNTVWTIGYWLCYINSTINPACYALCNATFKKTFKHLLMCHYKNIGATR", "test": "Radioligand binding assay ([3H]NMS displacement), hM2", "conditions": "[3H]NMS at 1 nM, CHO cell membranes, 60 minutes at 37° C.", "protocol": "CHO (Chinese hamster ovary) cell lines stabilely expressing cloned human hM1, hM2, hM3 and hM4 muscarinic receptor subtypes, respectively, were grown to near confluency in medium consisting of HAM's F-12 supplemented with 10% FBS (Fetal Bovine Serum) and 250 μg/mL Geneticin. The cells were grown in a 5% CO2, 37° C. incubator and lifted with dPBS+2 mM EDTA. Cells were collected by 5 minute centrifugation at 650×g, and cell pellets were either stored frozen at −80° C. or membranes were prepared immediately. For membrane preparation, cell pellets were resuspended in lysis buffer and homogenized with a Polytron PT-2100 tissue disrupter (Kinematica AG; 20 seconds×2 bursts). Crude membranes were centrifuged at 40,000×g for 15 minutes at 4° C. […] Protein concentration of the membrane suspension was determined by the method of Lowry, O. et al., (1951) Journal of Biochemistry: 193, 265. […]\nRadioligand binding assays were performed in 96-well microtiter plates in a total assay volume of 100 μL. […] Filter plates were rinsed three times with wash buffer (10 mM HEPES) to remove unbound radioactivity. […] The plates were then counted in a PerkinElmer Topcount liquid scintillation counter (PerkinElmer Inc., Wellesley, Mass.). Binding data were analyzed by nonlinear regression analysis with the GraphPad Prism Software package (GraphPad Software, Inc., San Diego, Calif.) using the one-site competition model. […]"}, "[2]": {"test": "Chemical stability of salt forms (change in purity by HPLC upon storage)", "format": "physicochemical", "conditions": "40° C. and 75% relative humidity, 7 days, HPLC Method D", "protocol": "The chemical stability of each salt form was evaluated by determining the change in purity of the sample upon storage of the salt form at 40° C.\nPrior to storage, each salt form was analyzed by HPLC (Method D) to determine sample purity and in particular, to determine the amount of the following impurities present in the sample: • A. 3-[4-{N-[7-(3-(S)-1-Carbamoyl-1,1-diphenylmethyl)pyrrolidin-1-yl)hept-1-yl]-N-(isopropyl)amino}piperidin-1-ylmethyl]-4-methoxy-1-methylpyridinium Salt (Impurity A); • B. 4-{N-[7-(3-(S)-1-Carbamoyl-1,1-diphenylmethyl)pyrrolidin-1-yl)hept-1-yl]-N-(isopropyl)amino}-1-(4-oxo-1,4-dihydropyrid-3-ylmethyl)piperidine (Impurity B).\nApproximately 50-100 mg of the salt form was then placed in two heat sealed low density polyethylene bags. The bags were then placed into a stability chamber that was previously set at 40° C. and 75% relative humidity. After 7 days, the bags were removed and the contents were analyzed by HPLC."}},
  "data": [
    {"smiles": "COc1ccncc1CN1CCC(N(CCCCCCCN2CC[C@@H](C(C(N)=O)(c3ccccc3)c3ccccc3)C2)C(C)C)CC1", "note": "[Example 6]", "values": [
      {"measurement": "Ki", "setting": "[1]", "result": "< 1", "unit": "nM"},
      {"measurement": "% Change in Impurity A", "setting": "[2]", "result": "<0.1", "unit": "%"},
      {"measurement": "% Change in Impurity B", "setting": "[2]", "result": "<0.1", "unit": "%"},
      {"measurement": "% Change in Purity of Salt", "setting": "[2]; heat sealed polyethylene bags", "result": 1.2, "unit": "%"}
    ]}
  ]
}
